Laboratory results: patent US11760751B2, “Benzo 2-azaspiro[4.4]nonane compound and use thereof” (HELIOEAST PHARMACEUTICAL CO., LTD., priority 2020, dated 2023)
pEC50: −log10 of the molar value. Where a name gives a salt, the structure may show the parent alone. Read-outs that look alike come from different tables or passages of the source.

Experiments:
S1PR1 [1] = target: T1, S1PR1 (Homo sapiens, UniProt P21453); test: In vitro S1PR1 agonistic activity, U2OS-EDG1 cells, LiveBLAzer-FRET B/G (CCF4-AM); format: cell-based; settings: for pEC50: 20 hours incubation; for Emax: % Effect
T1 construct: expressed in transfected cells
Description: Test Embodiment 2: In Vitro Evaluation of the Agonistic Activity of the Compounds of the Present Disclosure on S1PR1
(§1) Experimental objective: to detect the agonistic activity of compounds on S1PR1
I. Cell Treatment • 1. The cells U2OS-EDG1 (batch number: Invitrogen-K1520) were taken out from a liquid nitrogen tank and quickly thawed in a 37° C. water bath; • 2. the cell suspension was aspirated into a 15 mL centrifuge tube, resuspended in 5 mL of pre-warmed culture medium, and centrifuged at 1000 rpm for 5 min; • 3. the supernatant was discarded, 10 mL of culture medium was resuspended, transferred to a T75 culture flask, and cultured in a 37° C., 5% CO2 incubator.
II. Agonist Assay • 1. Compounds were diluted to working concentrations, and the compounds were 3-fold diluted by Echo 555 (manufacturer: Labcyte) to 10 concentrations, and then 200 nL of each concentration were transferred to cell plates, and centrifuged at 1000 rpm for 15 seconds; • 2. the culture medium in the culture flask was aspirated, and 4 mL of Dulbecco's Phosphate Buffered Saline (DPBS, supplier: Coring, catalog number: 21-031-CVR, batch number: 03318006) was added thereto to wash off the residual serum, and 2 mL of trypsin was added thereto, and incubated in a 37° C. incubator for 2 minutes to digest the cells, and then 10 mL of seed plate culture medium was added to resuspend the cells, and 0.6 mL of the cell suspension was taken out for counting; • 3. the cell density was adjusted with the seed plate culture medium to 1.88E+05 cells/mL, 40 μL was seeded per well (7500\well), and 40 μL of FreeStyle™ Expression culture medium was added around the cell plate, left to stand for 15 minutes at room temperature, and incubated at 37° C. with 5% CO2 for 20 hours.
III. Signal Detection • 1. LiveBLAzer™-FRET B/G Substrate (CCF4-AM) detection reagent was configured according to the instructions; • 2. 8 μL of 6×Substrate Mixture was added to each well of the cell plate, centrifuged at 1000 rpm for 15 seconds, attached with a membrane, incubated at 23° C. for 2 hours, and detected by Envision […].
IV. Data Analysis • 1. The original data was converted into % Effect by using the equation, and the value of EC50 could be obtained by curve fitting with four parameters [obtained in the “log(agonist) vs. response—Variable slope” mode in GraphPad Prism]; • 2. calculation formula: Ratio=(460 nm−blank)/(535 nm−blank) % Effect=(SampleRatio−Ave LCRatio)/(Ave HCRatio−Ave LCRatio)*100%

S1PR1 [2] = target: T1, S1PR1; test: In vitro S1PR1 agonistic activity, PathHunter cell line, chemiluminescent detection; format: cell-based; settings: for pEC50: 90-180 min at 37° C.; for Emax: % activity vs maximum control ligand
Description: Test Embodiment 1: In Vitro Evaluation of the Agonistic Activity of the Compounds of the Present Disclosure on S1PR1
as §1
I. Cell Treatment • 1. A PathHunter cell line was thawed according to standard procedures; • 2. the cells were inoculated in a 20 μL 384-well microplate and incubated at 37° C. for appropriate time.
II. Agonist • 1. For agonist determination, cells were incubated with samples to be tested to induce a reaction; • 2. a storage solution to be tested was 5-fold diluted into a buffer; • 3. 5 μL of the 5-fold dilution was added to the cells and incubated at 37° C. for 90-180 minutes. The vehicle concentration was 1%.
III. Signal Detection • 1. 12.5 μL or 15 μL of PathHunter detection reagent at a volume ratio of 50% was added at a time, and then incubated at room temperature for 1 hour to generate a detection signal; • 2. the microplate was read with a PerkinElmer Envision™ instrument for chemiluminescent signal detection.
IV. Data Analysis • 1. Activity analysis of the compound was carried out by using CBIS data analysis kit (ChemInnovation, CAA); • 2. calculation formula: % activity=100%×(average test sample RLU−average vehicle RLU)/(average maximum control ligand−average vehicle RLU)

[3] = Pharmacokinetic evaluation in SD rats (intravenous and oral); format: in vivo; settings: male, Sprague-Dawley, plasma, SD rat; for Cmax: read-out: Peak concentration Cmax; for bioavailability: read-out: Bioavailability F; for clearance: read-out: Clearance rate CL; for Vd: read-out: Tissue distribution Vdss; for AUC(0-t): read-out: Area under the drug-time curve AUC0-last PO; for half-life: read-out: Half-life T1/2 (PO) (converted)
Description: Test Embodiment 3: Pharmacokinetic Evaluation of Compound in Rats
Experimental objective: to test the pharmacokinetics of the compound in SD rats
Sprague Dawley rat (male, 200-300 g, 7-9 weeks old, Shanghai SLAC)
(§2) A standard protocol was used to test the pharmacokinetic characteristics of rodents after intravenous injection and oral administration of the compound. In the experiment, the candidate compound was prepared into a clear solution, and administrated to rats by single intravenous injection and oral administration. The vehicle for intravenous injection was a 5:95 DMSO and 10% hydroxypropyl cyclodextrin aqueous solution, and the vehicle for oral administration was a 0.5% w/v methylcellulose and 0.2% w/v tween 80 aqueous solution. Whole blood samples within 24 hours were collected, centrifuged at 3000 g for 15 minutes, and the supernatant was separated to obtain plasma samples. 4-fold volume of acetonitrile solution containing internal standard was added thereto to precipitate protein. The mixture was centrifuged, and the supernatant was taken, and an equal volume of water was added thereto. Then the mixture was centrifuged and the supernatant was taken for injection. The blood drug concentration was quantitatively analyzed by LC-MS/MS analysis method, and pharmacokinetic parameters, such as peak concentration, clearance rate, half-life, area under the drug-time curve and bioavailability, were calculated.

[4] = Pharmacokinetic evaluation in CD-1 mice (intravenous and oral); format: in vivo; settings: male, mouse, plasma; for Cmax / bioavailability: intravenous 0.5 mg/kg; for Cmax: oral 2.0 mg/kg (route of Cmax not stated), read-out: Peak concentration Cmax; for bioavailability: oral 2.0 mg/kg, read-out: Bioavailability F; for clearance / Vd: intravenous injection 0.5 mg/kg (oral 2.0 mg/kg); for clearance: read-out: Clearance rate CL; for Vd: read-out: Tissue distribution Vdss; for AUC(0-t) / half-life: oral administration 2.0 mg/kg; for AUC(0-t): read-out: Area under the drug-time curve AUC0-last PO; for half-life: read-out: Half-life T1/2 (PO) (converted)
Description: Test Embodiment 4: Pharmacokinetic Evaluation of Compound in Mice
Experimental objective: to test the pharmacokinetics of the compound in CD-1 mice
CD-1 mice (male, 20-40 g, 6-10 weeks old, Shanghai BK)
as §2, with “The standard” for “A standard”, “clear solution or a suspension,” for “clear solution,”, “to two mice” for “to rats”, “hydroxypropyl β-cyclodextrin” for “hydroxypropyl cyclodextrin”, “at 3200” for “at 3000”, “for 10” for “for 15”

[5] = Pharmacokinetic evaluation in SD rats at different oral doses; format: in vivo, Sprague Dawley rats; settings: male, Sprague-Dawley, rat, plasma, po; for AUC(0-t): read-out: Area under the drug-time curve AUC0-last PO; for Cmax: read-out: Peak concentration Cmax; for Tmax: read-out: Peak time Tmax; for half-life: read-out: Half-life T1/2 (PO) (converted)
Description: Test Embodiment 5: Pharmacokinetic Evaluation of Compounds in Rats at Different Doses
Experimental objective: to test the pharmacokinetics of the compounds in SD rats at different doses
Sprague Dawley rats (male, 200-300 g, 7-9 weeks old, Shanghai SLAC)
A standard protocol was used to test the pharmacokinetic characteristics of the compounds in SD rats after oral administration. In the experiment, the candidate compound was prepared into a clear solution, and administrated to rats by single oral administration. The vehicle for compound 1 was DMSO: 10% hydroxypropyl β-cyclodextrin aqueous solution=5:95. The vehicle for compounds 1A and 1B was 0.5% carboxymethyl cellulose +0.2% Tween 80. Whole blood samples of compounds 1, 1A and 1B within 48 hours were collected, centrifuged at 3000 g for 15 minutes, and the supernatant was separated to obtain plasma samples. 4-fold volume of acetonitrile solution containing internal standard was added thereto to precipitate protein. The mixture was centrifuged, and the supernatant was taken, and an equal volume of water was added thereto. Then the mixture was centrifuged and the supernatant was taken for injection. The blood drug concentration was quantitatively analyzed by LC-MS/MS analysis method, and pharmacokinetic parameters, such as peak concentration, peak time, half-life, area under the drug-time curve, were calculated.

[6] = intravenous injection 0.8 mg/kg (oral 2.4 mg/kg)
[7] = 5 mg/kg, single oral administration 5 mg/kg
[8] = 30 mg/kg, single oral administration 30 mg/kg
[9] = intravenous injection 1.0 mg/kg (oral 3.0 mg/kg)

T1 sequence (P21453 whole entry): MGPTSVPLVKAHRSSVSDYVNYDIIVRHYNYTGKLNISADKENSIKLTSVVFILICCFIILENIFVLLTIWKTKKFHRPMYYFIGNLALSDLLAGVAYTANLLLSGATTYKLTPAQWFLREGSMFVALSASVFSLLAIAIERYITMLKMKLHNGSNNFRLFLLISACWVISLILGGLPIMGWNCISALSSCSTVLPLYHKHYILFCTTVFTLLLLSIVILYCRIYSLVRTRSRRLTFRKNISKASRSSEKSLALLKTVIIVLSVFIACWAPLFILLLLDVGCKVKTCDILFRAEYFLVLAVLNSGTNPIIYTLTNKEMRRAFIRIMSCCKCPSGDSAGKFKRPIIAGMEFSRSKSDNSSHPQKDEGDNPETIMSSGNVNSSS

CC(C)Nc1ncc(-c2nc(-c3cccc4c3CCC43CCN(CC4(C(=O)O)CC4)C3)no2)cc1C#N (centres unmarked) [Hydrochloride of compound 33]
pEC50 (S1PR1 [1]): 7.99
Emax (S1PR1 [1]; read-out: Emax): 99.9%

CC(C)Oc1ccc(-c2nc(-c3cccc4c3CCC43CCN(CC4(C(=O)O)CC4)C3)no2)cc1Br (centres unmarked) [Hydrochloride of compound 30]
pEC50 (S1PR1 [1]): 9.88
Emax (S1PR1 [1]; read-out: Emax): 103%

CC(C)Oc1ccc(-c2nc(-c3cccc4c3CCC43CCN(CC4(C(=O)O)CC4)C3)no2)cc1C#N (centres unmarked) [Hydrochloride of compound 22]
pEC50 (S1PR1 [2]): 10.12
Emax (S1PR1 [2]): 118%
Cmax ([3]; intravenous 0.8 mg/kg, oral 2.4 mg/kg (route of Cmax not stated)): 1770 ng/mL
bioavailability ([3]; intravenous 0.8 mg/kg, oral 2.4 mg/kg): 69.5%
clearance [3, 6]: 3.44 mL/min/kg
Vd [3, 6]: 1.6 L/kg
AUC(0-t) ([3]; oral administration 2.4 mg/kg): 16.3 µM·h
half-life ([3]; oral administration 2.4 mg/kg): 4.67 h
Cmax [4]: 869 ng/mL
bioavailability [4]: 62.5%
clearance [4]: 5.2 mL/min/kg
Vd [4]: 1.82 L/kg
AUC(0-t) [4]: 7.88 µM·h
half-life [4]: 3.66 h
AUC(0-t) [5, 7]: 32.3 µM·h
Cmax [5, 7]: 2400 nM
Tmax [5, 7]: 5 h
AUC(0-t) [5, 8]: 256 µM·h
half-life [5, 8]: 8.24 h
Cmax [5, 8]: 15300 nM
Tmax [5, 8]: 2 h

CC(C)Oc1ccc(-c2nc(-c3cccc4c3CCC43CCN(CC4(C(=O)O)CC4)C3)no2)cc1C(F)F (centres unmarked) [Hydrochloride of compound 29]
pEC50 (S1PR1 [1]): 10.68
Emax (S1PR1 [1]; read-out: Emax): 91.5%

CC(C)Oc1ccc(-c2nc(-c3cccc4c3CCC43CCN(C(=O)CO)C3)no2)cc1C#N (centres unmarked) [Compound 1]
pEC50 (S1PR1 [2]): 9.86
Emax (S1PR1 [2]): 122%
Cmax ([3]; intravenous 1.0 mg/kg, oral 3.0 mg/kg (route of Cmax not stated)): 1140 ng/mL
bioavailability ([3]; intravenous 1.0 mg/kg, oral 3.0 mg/kg): 83.1%
clearance [3, 9]: 5.97 mL/min/kg
Vd [3, 9]: 2.66 L/kg
AUC(0-t) ([3]; oral administration 3.0 mg/kg): 11.5 µM·h
half-life ([3]; oral administration 3.0 mg/kg): 4.91 h
Cmax [4]: 615 ng/mL
bioavailability [4]: 70.1%
clearance [4]: 18.2 mL/min/kg
Vd [4]: 2.17 L/kg
AUC(0-t) [4]: 2.74 µM·h
half-life [4]: 3.61 h

CC(C)Oc1ccc(-c2nc(-c3cccc4c3CCC43CCN(CC4(C(=O)O)CC4)C3)no2)cc1C#N (single isomer, unassigned) [Compound 22B]
pEC50 (S1PR1 [1]): 9.49
Emax (S1PR1 [1]): nM, 74.0%
AUC(0-t) [5, 7]: 33 µM·h
half-life [5, 7]: 6.7 h
Cmax [5, 7]: 2940 nM
Tmax [5, 7]: 3 h

N#Cc1cc(-c2nc(-c3cccc4c3CCC43CCN(CC4(C(=O)O)CC4)C3)no2)ccc1OC1CCCC1 (centres unmarked) [Hydrochloride of compound 31]
pEC50 (S1PR1 [1]): 9.34
Emax (S1PR1 [1]; read-out: Emax): 101%

N#Cc1cc(-c2nc(-c3cccc4c3CCC43CCN(CC4(C(=O)O)CC4)C3)no2)ccc1OC(F)F (centres unmarked) [Hydrochloride of compound 34]
pEC50 (S1PR1 [1]): 8.22
Emax (S1PR1 [1]; read-out: Emax): 94.9%

CC(C)Oc1ncc(-c2nc(-c3cccc4c3CCC43CCN(CC4(C(=O)O)CC4)C3)no2)cc1C#N (centres unmarked) [Hydrochloride of compound 32]
pEC50 (S1PR1 [1]): 8.84
Emax (S1PR1 [1]; read-out: Emax): 95.9%
